Values quoted from earlier work, collected in Sander's compilation of Henry's law constants.
Values joined by “and” are separate entries in the source; they are usually repeats but may differ in a detail not shown here. Equal values may be shown once.

Columns and labels:
[1] = Henry solubility constant Hcp at 293 K (mol/(m3 Pa)); settings: reference: Tomlin (1998); cited value
[2] = Henry solubility constant Hcp at 298.15 K (mol/(m3 Pa)); settings: cited value
[3] = reference: Barcelo and Hennion (1997)
[4] = reference: Burkholder et al. (2015)
[5] = reference: Burkholder et al. (2019)
[6] = reference: Fogg and Sangster (2003)
[7] = reference: Sander et al. (2006)
[8] = reference: Sander et al. (2011)
[9] = reference: Mackay et al. (1992b)
[10] = reference: Plyasunov et al. (2006)

In the case of Cc1cc(C)nc(Nc2ccccc2)n1 [pyrimethanil], the “Henry solubility constant Hcp at 293 K” value [1] is listed as 280.
For CC(Cc1ccc(C(C)(C)C)cc1)CN1CCCCC1 (centres undefined) [fenpropidin], the “Henry solubility constant Hcp at 293 K” value [1] is given as 0.099.
For O=C(Nc1ccccc1)Nc1ccnc(Cl)c1 [forchlorfenuron], the “Henry solubility constant Hcp” value ([2]; reference: MacBean (2012b)) is given as 3.5e+06.
In the case of CCOP(=S)(OCC)Oc1ccc([N+](=O)[O-])cc1 [parathion], the “Henry solubility constant Hcp” value [2, 3] is given as 0.8 and the “Henry solubility constant Hcp” value ([2]; reference: MacBean (2012b)) is given as 33.
For CCCCC(CC)COC(=O)c1ccccc1C(=O)OCC(CC)CCCC (centres undefined) [bis(2-ethylhexyl)-phthalate], the “Henry solubility constant Hcp” value ([2]; reference: Petrasek et al. (1983)) is given as 82.
In the case of Cc1cccc([N+](=O)[O-])c1 [3-nitrotoluene], the “Henry solubility constant Hcp” value ([2]; reference: Brockbank (2013)) is given as 0.27 and the “Henry solubility constant Hcp” value ([2]; reference: Goldstein (1982)) is given as 0.14.
For O=C(O)CCCC(=O)O [pentanedioic acid], the “Henry solubility constant Hcp” value [2, 4] is listed as 3.8e+07 and the “Henry solubility constant Hcp” value [2, 5] is listed as 3.8e+07.
In the case of Brc1ccc(Br)c(Br)c1 [1,2,4-tribromobenzene], the “Henry solubility constant Hcp” value ([2]; reference: Kuramochi et al. (2004)) is given as 0.029.
For CCCCCCCO [1-heptanol], the “Henry solubility constant Hcp” value ([2]; reference: Brockbank (2013)) is listed as 0.53.
For CCOP(=O)(OCC)OC(=CCl)c1ccc(Cl)cc1Cl [chlorfenvinphos], the “Henry solubility constant Hcp” value [2, 3] is listed as 35.
For ClC=C(Cl)Cl [trichloroethene], the “Henry solubility constant Hcp” value ([2]; reference: Brockbank (2013)) is listed as 0.001, the “Henry solubility constant Hcp” value [2, 4] is listed as 0.0011 and the “Henry solubility constant Hcp” value [2, 5] is listed as 0.0011. For the same compound, the “Henry solubility constant Hcp” value [2, 6] was 0.001 and the “Henry solubility constant Hcp” value ([2]; reference: Goldstein (1982)) was 0.00088.
In the case of C=CCCCCCCC [1-nonene], the “Henry solubility constant Hcp” value ([2]; reference: Brockbank (2013)) is listed as 1.1e-05.
In the case of CCCCCCI [1-iodohexane], the “Henry solubility constant Hcp” value ([2]; reference: Brockbank (2013)) is listed as 0.00034.
For ClN(Cl)Cl [nitrogen trichloride], the “Henry solubility constant Hcp” value [2, 4] is given as 0.00099, the “Henry solubility constant Hcp” value [2, 5] is given as 0.00099 and the “Henry solubility constant Hcp” value [2, 7] is given as 0.00099. For the same compound, the “Henry solubility constant Hcp” value [2, 8] was 0.00099.
For N#Cc1ccccc1 [benzenenitrile], the “Henry solubility constant Hcp” value ([2]; reference: Brockbank (2013)) is given as 0.35.
In the case of CCOC(=O)CC(=O)OCC [propanedioic acid, diethyl ester], the “Henry solubility constant Hcp” value ([2]; reference: Brockbank (2013)) is listed as 3.9.
In the case of CCCCCCCC [octane], the “Henry solubility constant Hcp” value ([2]; reference: Brockbank (2013)) is listed as 3.4e-06.
For CCNc1nc(NC(C)C)nc(SC)n1 [ametryn], the “Henry solubility constant Hcp” value [2, 3] is listed as 82.
In the case of CCCCCCCBr [1-bromoheptane], the “Henry solubility constant Hcp” value ([2]; reference: Brockbank (2013)) is given as 0.00022.
In the case of C=CC [propene], the “Henry solubility constant Hcp” value ([2]; reference: Deno and Berkheimer (1960)) is given as 9.2e-05.
For ClC1C(Cl)C(Cl)C(Cl)C(Cl)C1Cl (stereo not drawn) [β-1,2,3,4,5,6-hexachlorocyclohexane], the “Henry solubility constant Hcp” value ([2]; reference: Xiao et al. (2004)) is listed as 27.
In the case of CCc1cccc2ccccc12 [1-ethylnaphthalene], the “Henry solubility constant Hcp” value ([2]; reference: Brockbank (2013)) is given as 0.02 and the “Henry solubility constant Hcp” value [2, 9] is given as 0.026.
In the case of CC(CCl)OC(C)CCl (centres undefined) [bis-(2-chloroisopropyl) ether], the “Henry solubility constant Hcp” value ([2]; reference: Goldstein (1982)) is given as 0.065 and 0.064.
In the case of CC(C)c1ccccc1 [(2-propyl)-benzene], the “Henry solubility constant Hcp” value ([2]; reference: Brockbank (2013)) is given as 0.0009.
In the case of Cc1c(Br)c2ccc(F)cc2n1S(=O)(=O)c1ncn(S(=O)(=O)N(C)C)n1 [amisulbrom], the “Henry solubility constant Hcp” value ([2]; reference: MacBean (2012b)) is given as 47.
In the case of C=CC(=O)OCC [ethyl propenoate], the “Henry solubility constant Hcp” value ([2]; reference: Brockbank (2013)) is given as 0.039.
In the case of COO [methyl hydroperoxide], the “Henry solubility constant Hcp” value ([2]; reference: Brockbank (2013)) is given as 3, the “Henry solubility constant Hcp” value [2, 4] is given as 3 and the “Henry solubility constant Hcp” value [2, 5] is given as 3. For the same compound, the “Henry solubility constant Hcp” value [2, 7] was 3 and the “Henry solubility constant Hcp” value [2, 8] was 3.
In the case of CCN [ethanamine], the “Henry solubility constant Hcp” value ([2]; reference: Brockbank (2013)) is given as 0.84, the “Henry solubility constant Hcp” value [2, 4] is given as 0.8 and the “Henry solubility constant Hcp” value [2, 5] is given as 0.8.
In the case of CCCCC(C=O)CC (centres undefined) [2-ethylhexanal], the “Henry solubility constant Hcp” value ([2]; reference: Brockbank (2013)) is listed as 0.012.
In the case of CC(=O)OC(C)(C)C [1,1-dimethylethyl ethanoate], the “Henry solubility constant Hcp” value ([2]; reference: Brockbank (2013)) is listed as 0.012.
For BrCBr [dibromomethane], the “Henry solubility constant Hcp” value ([2]; reference: Brockbank (2013)) is listed as 0.012 and the “Henry solubility constant Hcp” value [2, 5] is listed as 0.012.
In the case of O=C(NC(=O)c1c(F)cccc1F)Nc1ccc(Cl)cc1 [diflubenzuron], the “Henry solubility constant Hcp” value [2, 3] is given as 21.
For CCCl [chloroethane], the “Henry solubility constant Hcp” value ([2]; reference: Brockbank (2013)) is given as 0.00081, the “Henry solubility constant Hcp” value [2, 4] is given as 0.00083 and the “Henry solubility constant Hcp” value [2, 5] is given as 0.00081. For the same compound, the “Henry solubility constant Hcp” value ([2]; reference: Goldstein (1982)) was 0.00068.
In the case of CCCCOC(=O)CCC [butyl butanoate], the “Henry solubility constant Hcp” value ([2]; reference: Brockbank (2013)) is given as 0.017.
For COC[C@H](C)N(C(=O)CCl)c1c(C)csc1C [dimethenamid-p], the “Henry solubility constant Hcp” value ([2]; reference: MacBean (2012b)) is given as 2100.
For ClCCCCCCl [1,5-dichloropentane], the “Henry solubility constant Hcp” value ([2]; reference: Brockbank (2013)) is given as 0.01.
For CCCCCCC [heptane], the “Henry solubility constant Hcp” value ([2]; reference: Brockbank (2013)) is listed as 4.4e-06.
For C[C@@H]1CCCC[C@H]1C (relative stereo) [trans-1,2-dimethylcyclohexane], the “Henry solubility constant Hcp” value ([2]; reference: Brockbank (2013)) is given as 1.6e-05.
For CCOCC [diethyl ether], the “Henry solubility constant Hcp” value ([2]; reference: Brockbank (2013)) is listed as 0.0099, the “Henry solubility constant Hcp” value [2, 4] is listed as 0.02 and the “Henry solubility constant Hcp” value [2, 5] is listed as 0.0099.
For c1ccc(CCc2ccccc2)cc1 [1,2-diphenylethane], the “Henry solubility constant Hcp” value [2, 9] is given as 0.059.
In the case of ClCC(Cl)CCl [1,2,3-trichloropropane], the “Henry solubility constant Hcp” value ([2]; reference: Brockbank (2013)) is listed as 0.033, the “Henry solubility constant Hcp” value [2, 4] is listed as 0.036 and the “Henry solubility constant Hcp” value [2, 5] is listed as 0.036.
For O=C(F)Cl [carbonic chloride fluoride], the “Henry solubility constant Hcp” value ([2]; reference: George et al. (1993)) is listed as 0.099.
For OCCCCO [1,4-butanediol], the “Henry solubility constant Hcp” value [2, 4] is listed as 35000 and the “Henry solubility constant Hcp” value [2, 5] is listed as 35000.
For CCCCC#N [pentanenitrile], the “Henry solubility constant Hcp” value ([2]; reference: Brockbank (2013)) is listed as 0.16 and the “Henry solubility constant Hcp” value [2, 10] is listed as 0.14.
For CC(C)C#N [2-methylpropanenitrile], the “Henry solubility constant Hcp” value ([2]; reference: Brockbank (2013)) is listed as 0.11 and the “Henry solubility constant Hcp” value [2, 10] is listed as 0.1.
In the case of C=CCCCCCCCC [1-decene], the “Henry solubility constant Hcp” value ([2]; reference: Brockbank (2013)) is given as 8.6e-06.
In the case of CCCC(C)O (centres undefined) [2-pentanol], the “Henry solubility constant Hcp” value ([2]; reference: Brockbank (2013)) is given as 0.67.
In the case of CCOP(=S)(OCC)SCSP(=S)(OCC)OCC [ethion], the “Henry solubility constant Hcp” value [2, 3] is listed as 0.31.
In the case of CC(C)N1C(=O)c2ccccc2NS1(=O)=O [bentazone], the “Henry solubility constant Hcp” value [2, 3] is given as 130.
For CCO [ethanol], the “Henry solubility constant Hcp” value ([2]; reference: Brockbank (2013)) is listed as 1.8, the “Henry solubility constant Hcp” value [2, 4] is listed as 1.9 and the “Henry solubility constant Hcp” value [2, 5] is listed as 1.9. For the same compound, the “Henry solubility constant Hcp” value ([2]; reference: Dohnal et al. (2006)) was 1.8, the “Henry solubility constant Hcp” value ([2]; reference: Dubowski (1979)) was 1.9 and the “Henry solubility constant Hcp” value [2, 6] was 1.7. For the same compound, the “Henry solubility constant Hcp” value ([2]; reference: Gaffney and Senum (1984)) was 2, the “Henry solubility constant Hcp” value [2, 7] was 2 and the “Henry solubility constant Hcp” value [2, 8] was 1.9. The “Henry solubility constant Hcp” value ([2]; reference: Schaffer and Daubert (1969)) was 1.5, the “Henry solubility constant Hcp” value ([2]; reference: Timmermans (1960)) was 1.6 and the “Henry solubility constant Hcp” value ([2]; reference: Warneck (2006)) was 1.9.
